Reference: patent publication US20060052456A1, “Kynurenine 3-hydroxylase inhibitors for the treatment of diabetes by increasing the number of islets of langerhans cells” (MERCK PATENT GMBH, priority 2003, published 2006)

Columns and labels:
[1] = system: hepatocytes; assay: Hepatic glucose production in vitro in isolated hepatocytes (Table IV); format: cell-based, Wistar rats; settings: Rattus norvegicus, Hepatocyte
Experimental: The following two methods were used:
1) The hepatocytes are cultured for 16 to 18 hours in DMEM medium in the presence of AMP cyclase/dexamethasone at respective concentrations of 5×10^−5 M and 5×10^−7 M, with preincubation of the products at the test doses. After washing in pH 7.4 PBS buffer, the cells are incubated for three hours at 37° C. in a Krebs/AMPc/DEX buffer at the abovementioned concentrations. 0.1 μM insulin is used as reference substance. Two identical experiments are performed (Table III-1).
After washing in pH 7.4 PBS buffer, the cells are incubated for two hours at 37° C. in a Krebs buffer free of glucose and of insulin, containing lactate/pyruvate (10/1 mM) in the presence or absence of the test compounds. 10 μM MICA (5-methoxyindole-2-carboxylic acid) is used as reference substance. Two identical experiments are performed (Table III-2).
The protein assay is performed on the rest of the incubation medium via the Lowry method (BIO-RAD Dc protein assay, BIO-RAD 5000116).
The results are expressed as nmoles of glucose produced per […] of proteins. The statistical test used is the t test.

[2] = target: T1, kynurenine 3-hydroxylase (Rattus norvegicus, UniProt O88867); assay: Inhibitory activity on kynurenine 3-hydroxylase in rat liver homogenate; format: biochemical; settings: mean of two experiments, read-out: IC50, kynurenine 3-hydroxylase inhibition
T1 construct: from tissue; host or cells: rat liver homogenate (12000 rpm pellet, resuspended)
Experimental: Study of the Inhibitory Activity on Kynurenine 3-Hydroxylase in Rat Liver
Rat livers are homogenised (1:8 weight/volume) in a buffer solution comprising: 0.25 M sucrose; 50 mM pH 7.4 Tris; 1 mM EDTA; and 1 mM DTT.
The homogenates are centrifuged for 10 minutes at 12000 rpm. The pellets are resuspended in the buffer solution described above (1:2 weight/volume).
The kynurenine 3-hydroxylase inhibition is determined by incubating 10 μL of the homogenate with NADPH (2 mM), kynurenine (100 μM) and various concentrations of the test compounds in a final volume of 100 μL at 37° C. for 5 minutes.
The compounds are tested at concentrations of between 1 μM and 300 μM. 3,4-Dimethoxy-N-[4-(3-nitrophenyl)thiazol-2-yl]benzenesulfonamide is a compound from the company Hoffmann-LaRoche (Basle, see J. Med. Chem., 40 (1997), 4738). 30H-Kynurenine was tested according to the protocol described by Carpendo et al. (Neuroscience, 61 (1994), 237-244).
Each of the experiments is repeated once and the IC50 values (in μmol/L) are calculated and given in the form of a mean of these two experiments.
Results concerning representative examples of family Ih are given in Table II below, in which is indicated the measurement of the percentage of remaining kynurenine 3-hydroxylase activity relative to the control (100%).

[3] = system: perfused isolated pancreases from N0 STZ diabetic rats; assay: Secretion of insulin and glucagon in perfused isolated pancreases from N0 STZ diabetic rats; format: cell-based; settings: perfused diabetic rat pancreas; absence of glucose, then 16.5 mM glucose; glucose-dependent
Text: The results are expressed as the mean ±SEM (standard error of mean) of several experiments. The statistical test used is the Scheffé test.

T1 sequence (O88867 whole entry): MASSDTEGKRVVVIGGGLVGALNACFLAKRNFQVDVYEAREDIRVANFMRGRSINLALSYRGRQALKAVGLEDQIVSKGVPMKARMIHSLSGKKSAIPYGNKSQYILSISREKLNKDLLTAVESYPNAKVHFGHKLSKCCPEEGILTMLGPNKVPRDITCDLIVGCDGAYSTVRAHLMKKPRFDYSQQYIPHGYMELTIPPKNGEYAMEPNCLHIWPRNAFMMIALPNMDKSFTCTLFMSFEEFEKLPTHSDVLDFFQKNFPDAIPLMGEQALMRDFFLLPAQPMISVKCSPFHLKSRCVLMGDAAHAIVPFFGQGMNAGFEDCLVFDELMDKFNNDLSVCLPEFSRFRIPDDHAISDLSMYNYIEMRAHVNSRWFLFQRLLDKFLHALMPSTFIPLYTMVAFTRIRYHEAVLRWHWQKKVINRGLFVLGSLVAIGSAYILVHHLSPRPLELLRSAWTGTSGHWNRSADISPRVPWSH

IC50 [2]: 10 ± 2.1 µM
Structure (SMILES): COc1ccc(S(=O)(=O)Nc2nc(-c3cccc([N+](=O)[O-])c3)cs2)cc1OC [Compound k, 3,4-dimethoxy-N-[4-(3-nitrophenyl)thiazol-2-yl]benzenesulfonamide]
inhibition at 10 µM ([1]; 10 μM): 0% | inhibition at 100 µM ([1]; 100 μM): 22% | glucagon secretion (in words) [3]: stimulation | insulin secretion (in words) [3]: stimulation
